The results in this text go back to US20070155780A1, “Stabilized composition containing 4-amino-5-chloro-n-[(1r, 3r, 5s)-8-methyl-8-azabicyclo[3.2.1]oct-3-y1]-2-[1-methylbut-2-ynyloxy]benzamide” (priority 2004, published 2007).

Each structure is given as a SMILES string.

This data set in a line: Compatibility test of the active ingredient with pharmaceutical additives (storage, HPLC). As to conditions: 60° C., relative humidity 75%, one week. It counts as physicochemical.

Method: Specifically, 4-amino-5-chloro-N-[(1R,3r,5S)-8-methyl-8-azabicyclo[3.2.1]oct-3-yl]-2-[(1S)-1-methylbut-2-ynyloxy]benzamide was admixed with various pharmaceutical additives in weight proportions in Table 2, the resulting compositions were weighed in transparent glass bottles, and were stored at 60° C., relative humidity of 75% for one week while keeping the lid open. Various fillers, disintegrators, binders, lubricants, and others were used as the pharmaceutical additives. As a control, 4-amino-5-chloro-N-[(1R,3r,5S)-8-methyl-8-azabicyclo[3.2.1]oct-3-yl]-2-[(1S)-1-methylbut-2-ynyloxy]benzamide alone was weighed in a transparent glass bottle and was stored under the above-mentioned conditions. The samples before and after storage were evaluated using high-performance liquid chromatography (HPLC). The stabilities of the samples were evaluated based on the total amount of decomposition products (%), the amount (%) of main decomposition product at a retention time (RRT) of 1.37, and the residual ratio of content (%) of the active ingredient after storage. […] Total amount of decomposition products (%)=Total sum of the amounts of individual decomposition products Residual ratio of content (%)=[(Content after storage)/(Content before storage)]×100 (HPLC condition)
The respective samples before and after storage were mixed with an extraction medium, stirred for sixty minutes, and centrifuged at 3000 rpm for fifteen minutes. The resulting supernatants were assayed by liquid chromatography to thereby determine the amounts of decomposition products and the content of the active ingredient. • Extraction medium: 30% by volume aqueous solution of acetonitrile • Detector: Ultraviolet absorptiometer • Mobile phase A: Mixture of water/acetonitrile/(sodium perchlorate monohydrate)/(perchloric acid) (900:100:7:1, V/V/W/V) • Mobile phase B: Mixture of acetonitrile/water/(sodium perchlorate monohydrate)/(perchloric acid) (900:100:7:1, V/V/W/V) • Column: Stainless steel tube having an inner diameter of 4.6 mm and a length of 15 cm, charged with 3-μm octadecylsilylated silica gel for liquid chromatography • Column temperature: Constant temperature around 40° C.

On to `CC#C[C@H](C)Oc1cc(N)c(Cl)cc1C(=O)NC1CC2CCC(C1)N2C` (stereo partly drawn) [the active ingredient, 4-amino-5-chloro-N-[(1R,3r,5S)-8-methyl-8-azabicyclo[3.2.1]oct-3-yl]-2-[(1S)-1-methylbut-2-ynyloxy]benzamide], for which, under “compared within additive class or with control”, the “Decomposition on storage, in words” value is reported as “no decomposition product”. Also, the “Amount of main decomposition product at RRT = 1.37 (%)” value (active ingredient admixed with additive (additive rate 100, 50 or 15 to the active ingredient), lid open, HPLC external standard method) is 0.00%. Moreover, the “Residual ratio of content (%)” value (active ingredient admixed with additive, lid open, content after/before storage x100) is recorded as 99.6%. The “Total amount of decomposition products (%)” value (active ingredient admixed with additive, lid open, sum of individual decomposition products) was 0.00%.
